Legend:
[1] = Cytotoxicity against MDCK cells assessed as reduction in cell viability after 48 hrs by crystal violet staining based method; parameters: species or system Canis lupus familiaris; conditions: dog
[2] = tested on: Influenza A virus; experiment: Antiviral activity against Influenza A virus (A/Virginia/ATCC1/2009(H1N1)) infected in MDCK cells assessed as inhibition of virus-induced cytopathicity after 48 hrs by crystal violet staining based method; type: functional, organism-based
[3] = tested on: H3N2 subtype; experiment: Antiviral activity against Influenza A virus (A/Aichi/2/1968(H3N2)) infected in MDCK cells assessed as inhibition of virus-induced cytopathicity after 48 hrs by crystal violet staining based method; type: functional, organism-based
[4] = tested on: Staphylococcus aureus; experiment: Antibacterial activity against methicillin-resistant Staphylococcus aureus CCARM 3090 at 10 mg/ml after 20 hrs by agar diffusion method; type: functional; conditions: CCARM 3090, 20 h, read-out: IZ

NC(=O)c1ncn([C@@H]2O[C@H](CO)[C@@H](O)[C@H]2O)n1 [RIBAVIRIN] showed a CC50 at 48 h [1] of 1370 µM, an IC50 [2] of 66.7 µM and an IC50 [3] of 99.6 µM.
Work on CCC(C)CCCCc1coc(=O)c(C)c1OC (stereo not given) yielded a CC50 at 48 h [1] of 1550 µM, an IC50 [2] of 68.4 µM and a zone of inhibition at 10000 µg/mL [4] of 0 mm. The IC50 [3] was 72.8 µM.
With Cc1c(O)c(CCCC(C)C)coc1=O the CC50 at 48 h [1] was 1240 µM, the IC50 [2] was 60.9 µM and the zone of inhibition at 10000 µg/mL [4] was 0 mm. It also gave an IC50 [3] of 104 µM.
In the case of CCC(C)CCCCc1coc(=O)c(C)c1O (stereo not given), the CC50 at 48 h [1] is reported as 1620 µM, the IC50 [2] is reported as 79.3 µM and the zone of inhibition at 10000 µg/mL [4] is reported as 18 mm. For the same compound, the IC50 [3] was 82.3 µM.
With CCCCCCCc1coc(=O)c(C)c1O the CC50 at 48 h [1] was 2200 µM, the IC50 [2] was 74.3 µM and the zone of inhibition at 10000 µg/mL [4] was 11 mm. The IC50 [3] was 74.3 µM.
For COc1c(CCCC(C)C)coc(=O)c1C, the CC50 at 48 h [1] was 2000 µM, the IC50 [2] was 58.8 µM and the zone of inhibition at 10000 µg/mL [4] was 0 mm. It also gave an IC50 [3] of 95 µM.
Compound COc1c(CCCCC(C)C)coc(=O)c1C has a CC50 at 48 h [1] of 1880 µM, an IC50 [2] of 64.9 µM and a zone of inhibition at 10000 µg/mL [4] of 6 mm. It also gave an IC50 [3] of 63.9 µM.
CCCCCCCc1coc(=O)c(C)c1OC showed a CC50 at 48 h [1] of 2230 µM, an IC50 [2] of 30.6 µM and a zone of inhibition at 10000 µg/mL [4] of 0 mm. The IC50 [3] was 45.3 µM.
With Cc1c(O)c(CCCCC(C)C)coc1=O the CC50 at 48 h [1] was 1290 µM, the IC50 [2] was 132 µM and the zone of inhibition at 10000 µg/mL [4] was 11 mm. The IC50 [3] was 150 µM.

Source: ChEMBL document CHEMBL4229464, “Generation of methylated violapyrones with improved anti-influenza A virus activity by heterologous expression of a type III PKS gene in a marine Streptomyces strain” (Bioorg Med Chem Lett, 2018)
